According to PMC12195707, “Evaluation of Antitumoral Activity in a 3D Cell Model of a Src Inhibitor Prodrug for Glioblastoma Treatment” (Pharmaceutics, 2025):
Where “and” joins values, the source holds several entries; their conditions need not be identical. Equal values may be shown once.

Experiments:
[1] = Stability/release in human plasma; details: for Stability (% unmodified compound): 37 °C; for half-life: human, pH 7.4
U87 GBM cells = system: U87 GBM cells; parameters: method as in PMID 12564978; details: cited from earlier work
[2] = system: U87 glioblastoma cell line; assay: 2D cell viability assay (PrestoBlue), U87; type: cell-based; details: Homo sapiens, 72 h, U87 2D culture
Method: The human glioblastoma cell line U87 MG (U87) was originally isolated from a patient with a malignant glioma (ECACC). The human glioblastoma cell line U251 MG (U251) was derived from a patient with a malignant glioblastoma (ECACC). DMEM high-glucose growth medium (Euroclone, Milan, Italy), supplemented with 10% FBS (Euroclone), 200 mM L-glutamine (Euroclone), 100 IU/mL penicillin, and 100 µg/mL streptomycin (Euroclone) comprised the culture medium used for cell propagation at a controlled temperature and atmosphere, at 37 °C, […], and 5% CO2. Cell lines underwent regular testing for mycoplasma using the PCR method and identity verification was performed using DNA profiling.
For the treatment of 2D cultures, U87 and U251 cell lines were initially seeded at a density of 2.5 × 10^4 cells/mL in a 24 multiwell with a complete DMEM high-glucose growth medium. The viability test was started 24 h after cell plating and performed for 72 h. According to the experimental plan, the tests were performed in the presence of a complete DMEM high-glucose growth medium or, to avoid the serum-dependent degradation of prodrug, in an FBS-free DMEM high-glucose growth medium that was supplemented with 200 mM L-glutamine, 100 IU/mL penicillin, and 100 µg/mL streptomycin. Cell viability in 2D and 3D models was assessed using the cell-permeable resazurin-based solution PrestoBlue (Thermo Fisher, Waltham, MA, USA). After incubating the cells in a 1:10 ratio with the colorimetric reagent for two hours in the dark, the spectrophotometer readings at 570 and 600 nm were utilized as a relative indicator for cell viability.
Data were imported into Excel or GraphPad Prism software (version 6.01) and elaborated as the mean ± standard deviation (SD) of at least three independent experiments. The calculation of IC50 values with 95% confidence intervals was performed in GraphPad Prism software using a parameter nonlinear fit of the log-dose vs. response elaboration of data. The p value of the log-dose vs. response was calculated with a two-tailed Mann–Whitney test for unpaired data. The statistical significance between two series of measures, including stability and PAMPA (both GI and BBB) experiments, was calculated with the parametric Student t test, considering a significant p value lower than 0.05.

[3] = system: U251 3D-bioprinted structures; assay: Viability assay in 3D-bioprinted U251 cell model (PrestoBlue); type: cell-based; details: Homo sapiens, U-251, 72 h, bioprinted U251 3D model
Method: A solution of 2% alginate and 8% gelatin (bio-ink) made up the hydrogel utilized for bioprinting. After 15 min of UV light exposure, the powders were dissolved in sterile DPBS in a magnetic stirrer set at 50 °C with laminar flow. After being made, bioink was put in sterile syringes and kept at 4 °C until it was needed. Bioink had been equilibrated at 37 °C prior to the bioprinting process. After that, 2.7 mL of bioink was added to 20 × 10^6 cells that had been resuspended in 300 µL of growth media. Lastly, a disposable cartridge containing a cell/hydrogel suspension was equilibrated in a temperature-controlled printhead for 30 min at 29 °C. The BIO-X bioprinter (Cellink, Gothenburg, Sweden) was used to print in a 12-well plate at a speed of 5 mm/s and a dispensing pressure of 50 kPa, while the temperature was adjusted to 18 °C. Before adding culture media, three-dimensional constructs were crosslinked using CaCl2 for ten minutes and BaCl2 for three minutes. After 8 days, 3D structures, after evaluating cell viability, were treated for 72 h with SI306 and SI306-PD2 at selected concentrations and in different conditions: in complete DMEM high-glucose growth medium and DMEM-high glucose growth medium without FBS (w/o). Fiji ImageJ software (version 2.16.0/1.54p, https://imagej.net/software/fiji/downloads, accessed on 20 May 2025) was used to perform measurements of 3D models’ diameters on images acquired using phase contrast microscopy. A hemocytometer was used to set a scale for normalized measures and to convert real optic distance in pixels. At least five different optical fields were acquired, and the diameter was calculated for at least 100 different cell aggregates in each experimental point.
For the treatment of 2D cultures, U87 and U251 cell lines were initially seeded at a density of 2.5 × 10^4 cells/mL in a 24 multiwell with a complete DMEM high-glucose growth medium. […] Cell viability in 2D and 3D models was assessed using the cell-permeable resazurin-based solution PrestoBlue (Thermo Fisher, Waltham, MA, USA). After incubating the cells in a 1:10 ratio with the colorimetric reagent for two hours in the dark, the spectrophotometer readings at 570 and 600 nm were utilized as a relative indicator for cell viability.
Data were imported into Excel or GraphPad Prism software (version 6.01) and elaborated as the mean ± standard deviation (SD) of at least three independent experiments. […] The p value of the log-dose vs. response was calculated with a two-tailed Mann–Whitney test for unpaired data. The statistical significance between two series of measures, including stability and PAMPA (both GI and BBB) experiments, was calculated with the parametric Student t test, considering a significant p value lower than 0.05.

[4] = Stability/release in cell culture medium DMEM (10% FBS); type: in vitro ADME; details: 37 °C; for half-life: bovine, DMEM plus 10% FBS (cell culture medium), read-out: Half-life t1/2 (converted)
CAS-1 GBM cells = system: CAS-1 GBM cells; parameters: method as in PMID 12564978; details: CAS-1 cells; cited from earlier work
in vitro = details: PAMPA, pH 7.4
Method: (§1) After being first dissolved in DMSO, the compounds were diluted 1:1 v/v using phosphate buffer (PBS 10 mM, pH 7.4). […] The gastrointestinal (GI) and blood–brain barrier (BBB) phospholipidic bilayers were mimicked by covering each well of the filter plate with either a 10%w/v CHCl3/dodecane brain polar lipid solution or a 1%w/v L-α-phosphatidylcholine solution (PC) in dodecane. After placing a DMSO/PBS 1:1v/v combination solution in the acceptor plate, the sandwich was gently shaken and incubated at room temperature for four hours. Samples were collected from the upper and bottom plates at the end time point, and the LC-UV/MS method was used for analysis. As previously reported, the apparent permeability (Papp cm/s × 10^−6) was quantified.

[5] = PAMPA assay, gastrointestinal (GI) membrane; type: in vitro ADME; details: four hours; for Papp at 4 h: pH 7.4, room temperature, read-out: Apparent permeability Papp; for Membrane retention MR: room temperature
Method: as §1

Src = target: Src; parameters: method as in PMID 28650650; details: cited from earlier work
U87MG xenograft = system: U87MG xenograft; parameters: method as in PMID 28650650; details: nude mice, in combination with radiotherapy; cited from earlier work

| Structure (SMILES) | Stability (% unmodified compound) ([1]; time 0 h) [%] | Stability (% unmodified compound) ([1]; time 0.083 h) [%] | Stability (% unmodified compound) ([1]; time 0.25 h) [%] | Stability (% unmodified compound) ([1]; time 0.5 h) [%] | Stability (% unmodified compound) ([1]; time 2 h) [%] | Stability (% unmodified compound) ([1]; time 4 h) [%] | Stability (% unmodified compound) ([1]; time 6 h) [%] | half-life [1] [h] | IC50 ([2]; 10% FBS-DMEM) [µM] | IC50 ([2]; FBS-free DMEM (w/o)) [µM] | IC50 ([3]; 10% FBS-DMEM) [µM] | IC50 ([3]; FBS-free DMEM (w/o)) [µM] | Stability (% unmodified compound) ([4]; time 0 h) [%] | Stability (% unmodified compound) ([4]; time 0.083 h) [%] | Stability (% unmodified compound) ([4]; time 0.25 h) [%] | Stability (% unmodified compound) ([4]; time 0.5 h) [%] | Stability (% unmodified compound) ([4]; time 1 h) | Stability (% unmodified compound) ([4]; time 2 h) [%] | Stability (% unmodified compound) ([4]; time 4 h) [%] | Stability (% unmodified compound) ([4]; time 24 h) | also measured |
| --- | --- | --- | --- | --- | --- | --- | --- | --- | --- | --- | --- | --- | --- | --- | --- | --- | --- | --- | --- | --- | --- |
| O=C(OCCOCCO)N(c1cccc(Br)c1)c1nc(SCCN2CCOCC2)nc2c1cnn2CC(Cl)c1ccccc1 (stereo not shown) [SI306-PD2, 2-(2-Hydroxyethoxy)ethyl (3-Bromophenyl)(1-(2-chloro-2-phenylethyl)-6-((2-morpholinoethyl)thio)-1H-pyrazolo[3,4-d]pyrimidin-4-yl)carbamate] | 101.03 ± 1.58 | 90.12 ± 2.45 | 89.41 ± 2.37 | 89.57 ± 1.82 | 88.55 ± 1.18 | 71.86 ± 1.03 | 70.80 ± 3.25 | 10.9 | 1.62 | 0.29 | 10 | 5.11 | 100.02 ± 0.80 | 100.22 ± 0.10 | 103.59 ± 2.97 | 98.01 ± 3.40 | 91.48% and 91.48 ± 0.86% | 85.45 ± 3.20 | 81.41 ± 3.94 | 40.07% and 40.07 ± 1.70% | Activity in GBM cells (U87 GBM cells): active; half-life [4]: 18.1 h; Activity in GBM cells (CAS-1 GBM cells): active; Papp at 4 h (in vitro): 19.5 ± 0.46 ×10⁻⁶ cm/s; Papp at 4 h [5]: 18.4 ± 2.32 ×10⁻⁶ cm/s; Membrane retention MR [5]: 5.26 ± 2.70% |
| ClC(Cn1ncc2c(Nc3cccc(Br)c3)nc(SCCN3CCOCC3)nc21)c1ccccc1 (stereo not shown) [SI306, N-(3-bromophenyl)-1-(2-chloro-2-phenylethyl)-6-((2-morpholinoethyl)thio)-1H-pyrazolo[3,4-d]pyrimidin-4-amine] | 100.50 ± 2.32 | 96.64 ± 2.74 | 97.99 ± 2.48 | 98.95 ± 1.18 | 99.92 ± 0.61 | 95.72 ± 0.76 | 95.54 ± 1.74 | > 100 | 3.07 | 0.27 | 14.3 | 11.7 | 100.11 ± 0.91 | 101.97 ± 2.32 | 103.96 ± 1.68 | 99.17 ± 1.10 | 98.52 ± 3.69% | 98.64 ± 1.79 | 93.56 ± 1.79 | 87.39% and 87.39 ± 0.41 % | Stability (% unmodified compound) ([1]; time 1 h): 99.48 ± 1.70%; Stability (% unmodified compound) ([1]; time 24 h): 93.12% and 93.12 ± 1.70 %; Ki (Src): 0.13 µM; Stability (% unmodified compound) ([4]; time 6 h): 92.30 ± 0.84 %; half-life [4]: > 100 h; U87MG xenograft growth (U87MG xenograft): strongly arrested U87MG xenograft growth; Papp at 4 h (in vitro): 8.44 ± 1.03 ×10⁻⁶ cm/s; Papp at 4 h [5]: 5.93 ± 0.38 ×10⁻⁶ cm/s; Membrane retention MR [5]: 60.09 ± 3.38% |
